Assay results from patent publication US6562355B1, “Comixture of dextran sulfate/escin for treating skin redness/edema and/or sensitive skin” (Societe L'Oreal S.A., priority 1999, dated 2003).
“And” between values parts separate entries of the source, which are not always exact repeats. Identical values can stand only once.

Columns and labels:
[1] = test system: fragments of normal human skin kept alive (eyelid); experiment: Anti-edema and vasodilation-inhibitory effect in human skin kept alive after induction with substance P/TNFα/arachidonic acid (cocktail A); semi-quantitative histological scores; assay type: cell-based; conditions: skin + cocktail A (5 μM substance P, arachidonic acid 40 mg/ml, TNFα 50 ng/ml) 2 hours, 37° C., topical, escin 0.075%, dextran sulfate 0.20%, 3 donors; for Vasodilation (histological score of dilation of the capillaries): score 0 (no dilation) to 4 (very large dilation), cocktail A alone 2.2, control skin 0.37; for Edema (histological score): score 0 (no edema) to 4 (very considerable edema), cocktail A alone 2.8, control skin 0.62
Excerpt: The goal of this study was to visualize the anti-edema effect and the vasodilation-inhibitory effect of intimate admixture of dextran sulfate and escin, in a model of skin kept alive (eyelid) after the induction of edema and vasodilation by a neuromediator (substance P)/α-type tumor necrosis factor (TNFα)/arachidonic acid combination.
Fragments of normal human skin from 3 different donors (plastic surgery), mechanically freed of the subcutaneous fat and the inner layer of the dermis, were each placed on a culture insert consisting of a porous membrane (pores 12 μm in diameter) (Costar), the dermal portion of the skin fragment being placed in contact with the porous membrane. The assembly thus prepared was positioned over the wells of a Costar brand 12-well culture plate and maintained for 24 hours at 37° C. in an incubator under a humidified atmosphere containing 5% CO2.
DMEM culture medium (Gibco-BRL) containing 100 U/ml of penicillin and 100 μg/ml of streptomycin, 200 μg/ml of L-glutamine and 0. 1% fetal calf serum (D.A.P., France), was added to the bottom of the wells such that the liquid reached the porous membrane without passing it. Thus mounted, the skin was in contact via its lower face surface through the porous membrane with the culture medium, transport taking place by slow diffusion between the two compartments.
The edema and the vasodilation were produced experimentally by placing on the surface of the skin a mixture in a culture medium consisting of 25 μl of a neuromediator (5 μM substance P), arachidonic acid (25 μl of a solution at a concentration of 40 mg/ml in glycerol) and TNFα (50 ng/ml), hereinafter referred to as “cocktail A”. These substances were maintained in contact with the skin for 2 hours.
The test products were applied topically onto the skin fragments during the induction of the edema and the vasodilation.
The escin, at a final concentration of 0.075%, was dissolved in water.
The dextran sulfate, at a final concentration of 0.20%, was dissolved in propylene glycol.
The temperature was maintained at 37° C. throughout the test period.
The histological analyses were carried out according to the conventional techniques known to this art, without modification of the protocols.
After treatment, the skin fragments were removed and fixed in Bouin liquid and included in paraffin for the histological analyses.
After staining with hemalun-eosin, the two (2) criteria, edema and dilation of the capillaries, were evaluated by means of semi-quantitative histological scores.
The histological evaluation was carried out in the superficial dermis and in the top part of the middle dermis on the same number of fields four (4) fields at 10× magnification). […]

[2] = cited from earlier work
[3] = solutions of pH ranging from 4 to 10 at room temperature; cited from earlier work

| Substance | Vasodilation (histological score of dilation of the capillaries) [1] | Edema (histological score) [1] | solubility in water and saline solutions [2] | stability in solutions [3] |
| --- | --- | --- | --- | --- |
| escin [reference compound] | 1.5 and 1.5 ± 0.5 | 1.16 and 1.16 ± 0.77 |  |  |
| dextran sulfate | 1.8 and 1.8 ± 1.04 | 2.1 and 2.1 ± 1.04 | good | high |
